Results: ChEMBL document CHEMBL1201862, “PubChem BioAssay data set” (2004)
Calls of active or inactive are those of the source.

What was measured:
Protein RecA = target: T1, Protein RecA (Mycobacterium tuberculosis, UniProt P9WHJ3); test: Fluorescence Cell-Free Homogeneous Dose Retest to Identify Inhibitors of RecA-Intein Splicing Activity. [Related pubchem assays (depositor defined):AID2097, AID2223, AID489010, AID492950]; format: functional
T1 sequence (P9WHJ3 whole entry): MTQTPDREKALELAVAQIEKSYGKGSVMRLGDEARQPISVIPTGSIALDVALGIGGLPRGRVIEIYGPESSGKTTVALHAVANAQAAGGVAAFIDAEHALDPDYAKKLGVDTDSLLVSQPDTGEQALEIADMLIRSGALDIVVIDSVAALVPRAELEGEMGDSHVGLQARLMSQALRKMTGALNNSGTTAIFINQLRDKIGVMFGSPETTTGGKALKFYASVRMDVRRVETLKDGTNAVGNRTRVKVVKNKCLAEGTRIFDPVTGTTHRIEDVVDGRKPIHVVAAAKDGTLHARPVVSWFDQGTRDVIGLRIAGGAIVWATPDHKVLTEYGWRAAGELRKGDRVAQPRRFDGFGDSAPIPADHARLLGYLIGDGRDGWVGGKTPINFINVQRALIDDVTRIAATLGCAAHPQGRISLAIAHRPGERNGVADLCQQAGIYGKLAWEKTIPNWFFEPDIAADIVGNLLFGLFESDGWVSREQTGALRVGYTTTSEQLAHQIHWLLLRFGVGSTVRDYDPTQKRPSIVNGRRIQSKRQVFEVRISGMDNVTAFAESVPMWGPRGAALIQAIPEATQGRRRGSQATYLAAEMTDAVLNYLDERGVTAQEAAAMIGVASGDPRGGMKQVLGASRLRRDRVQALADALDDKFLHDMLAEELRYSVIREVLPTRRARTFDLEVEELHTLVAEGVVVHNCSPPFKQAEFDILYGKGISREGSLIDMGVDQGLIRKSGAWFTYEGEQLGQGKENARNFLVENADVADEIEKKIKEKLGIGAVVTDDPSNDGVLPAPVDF

[1] = target: T2, Histone-lysine N-methyltransferase NSD2 (Homo sapiens, UniProt O96028); format: biochemical
T2 sequence (O96028 whole entry): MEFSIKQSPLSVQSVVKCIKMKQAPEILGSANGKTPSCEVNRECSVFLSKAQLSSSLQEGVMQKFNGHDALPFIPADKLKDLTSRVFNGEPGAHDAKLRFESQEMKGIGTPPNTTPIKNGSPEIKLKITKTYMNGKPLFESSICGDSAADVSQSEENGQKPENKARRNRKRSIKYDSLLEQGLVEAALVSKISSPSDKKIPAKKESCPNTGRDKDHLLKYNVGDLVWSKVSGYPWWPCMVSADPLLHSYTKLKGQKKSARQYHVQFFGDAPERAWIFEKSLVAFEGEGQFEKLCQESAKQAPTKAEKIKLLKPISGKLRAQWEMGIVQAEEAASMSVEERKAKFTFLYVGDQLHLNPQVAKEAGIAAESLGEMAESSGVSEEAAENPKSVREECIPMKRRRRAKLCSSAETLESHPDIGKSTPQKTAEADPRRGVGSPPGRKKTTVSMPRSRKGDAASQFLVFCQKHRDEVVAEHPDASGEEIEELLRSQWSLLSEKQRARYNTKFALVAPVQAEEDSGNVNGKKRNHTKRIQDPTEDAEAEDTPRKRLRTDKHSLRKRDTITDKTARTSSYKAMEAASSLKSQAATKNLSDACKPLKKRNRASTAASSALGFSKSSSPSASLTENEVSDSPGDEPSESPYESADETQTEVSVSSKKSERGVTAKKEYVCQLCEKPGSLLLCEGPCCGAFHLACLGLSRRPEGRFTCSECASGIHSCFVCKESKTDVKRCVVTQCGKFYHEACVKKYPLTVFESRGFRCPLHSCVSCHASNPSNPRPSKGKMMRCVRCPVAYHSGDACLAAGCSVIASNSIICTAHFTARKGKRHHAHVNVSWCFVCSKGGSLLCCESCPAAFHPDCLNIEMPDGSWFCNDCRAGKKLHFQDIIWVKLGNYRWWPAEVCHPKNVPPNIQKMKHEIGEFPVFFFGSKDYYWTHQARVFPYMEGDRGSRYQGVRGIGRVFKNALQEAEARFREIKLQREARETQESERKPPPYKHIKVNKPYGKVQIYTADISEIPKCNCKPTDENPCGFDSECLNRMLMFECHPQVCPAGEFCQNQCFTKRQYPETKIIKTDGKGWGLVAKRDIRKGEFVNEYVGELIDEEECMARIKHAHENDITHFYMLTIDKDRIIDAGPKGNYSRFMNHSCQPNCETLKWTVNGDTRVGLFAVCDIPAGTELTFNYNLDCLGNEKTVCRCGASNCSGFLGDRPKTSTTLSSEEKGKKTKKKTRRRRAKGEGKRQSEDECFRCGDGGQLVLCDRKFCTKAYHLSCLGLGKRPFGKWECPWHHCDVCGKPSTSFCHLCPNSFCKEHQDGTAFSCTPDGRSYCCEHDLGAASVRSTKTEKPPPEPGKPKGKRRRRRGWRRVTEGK

[2] = target: cGMP-dependent protein kinase 1 (Homo sapiens, UniProt Q13976); format: functional;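 note: value from a kinome panel screen with PRKG1 as the panel member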
[3] = target: Testis-specific serine/threonine-protein kinase 2 (Homo sapiens, UniProt Q96PF2); format: functional;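 note: part of the Navigating the Kinome panel, target entry STK22B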
[4] = target: Serine/threonine-protein kinase PAK 1 (Homo sapiens, UniProt Q13153); format: functional
Serine/threonine-protein kinase PAK 1, sequence (Q13153 whole entry, canonical isoform): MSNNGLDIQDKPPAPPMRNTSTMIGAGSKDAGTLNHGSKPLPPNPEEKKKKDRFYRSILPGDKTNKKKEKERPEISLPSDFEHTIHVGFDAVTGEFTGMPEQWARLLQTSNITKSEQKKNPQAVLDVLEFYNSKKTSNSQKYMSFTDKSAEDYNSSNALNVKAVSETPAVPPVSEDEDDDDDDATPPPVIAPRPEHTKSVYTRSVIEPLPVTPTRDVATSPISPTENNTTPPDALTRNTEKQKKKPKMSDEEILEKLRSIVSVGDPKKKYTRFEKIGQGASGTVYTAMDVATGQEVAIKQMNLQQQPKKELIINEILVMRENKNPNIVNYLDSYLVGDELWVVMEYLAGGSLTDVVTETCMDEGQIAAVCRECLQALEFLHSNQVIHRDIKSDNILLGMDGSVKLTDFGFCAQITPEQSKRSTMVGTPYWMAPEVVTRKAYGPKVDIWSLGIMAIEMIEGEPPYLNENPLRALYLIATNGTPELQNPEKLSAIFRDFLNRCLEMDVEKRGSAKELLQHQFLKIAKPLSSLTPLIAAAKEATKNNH

[5] = target: Casein kinase I isoform gamma-1 (Homo sapiens, UniProt Q9HCP0); format: functional;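 note: measured as the CSNK1G1 member of a kinome profiling panel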
Casein kinase I isoform gamma-1, sequence (Q9HCP0 whole entry, canonical isoform): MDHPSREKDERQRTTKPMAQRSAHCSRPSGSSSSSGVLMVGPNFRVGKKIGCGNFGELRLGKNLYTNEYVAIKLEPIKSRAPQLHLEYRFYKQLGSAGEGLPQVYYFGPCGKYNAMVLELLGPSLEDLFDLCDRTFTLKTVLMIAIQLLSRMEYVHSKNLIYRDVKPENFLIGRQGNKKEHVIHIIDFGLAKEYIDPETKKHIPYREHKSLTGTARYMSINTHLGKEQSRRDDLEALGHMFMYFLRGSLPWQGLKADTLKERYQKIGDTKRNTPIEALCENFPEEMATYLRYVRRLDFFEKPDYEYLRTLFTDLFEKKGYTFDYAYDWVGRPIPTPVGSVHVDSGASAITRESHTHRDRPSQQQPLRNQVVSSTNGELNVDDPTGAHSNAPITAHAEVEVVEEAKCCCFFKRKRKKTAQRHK

[6] = target: Mitogen-activated protein kinase kinase kinase kinase 2 (Homo sapiens, UniProt Q12851); format: functional;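 note: measured as one member of a kinome-wide kinase panel, with MAP4K2 as the panel entry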
[7] = target: Receptor tyrosine-protein kinase erbB-2 (Homo sapiens, UniProt P04626); test: Navigating the Kinome. Panel member name: ERBB2; format: functional
Receptor tyrosine-protein kinase erbB-2, sequence (P04626 whole entry): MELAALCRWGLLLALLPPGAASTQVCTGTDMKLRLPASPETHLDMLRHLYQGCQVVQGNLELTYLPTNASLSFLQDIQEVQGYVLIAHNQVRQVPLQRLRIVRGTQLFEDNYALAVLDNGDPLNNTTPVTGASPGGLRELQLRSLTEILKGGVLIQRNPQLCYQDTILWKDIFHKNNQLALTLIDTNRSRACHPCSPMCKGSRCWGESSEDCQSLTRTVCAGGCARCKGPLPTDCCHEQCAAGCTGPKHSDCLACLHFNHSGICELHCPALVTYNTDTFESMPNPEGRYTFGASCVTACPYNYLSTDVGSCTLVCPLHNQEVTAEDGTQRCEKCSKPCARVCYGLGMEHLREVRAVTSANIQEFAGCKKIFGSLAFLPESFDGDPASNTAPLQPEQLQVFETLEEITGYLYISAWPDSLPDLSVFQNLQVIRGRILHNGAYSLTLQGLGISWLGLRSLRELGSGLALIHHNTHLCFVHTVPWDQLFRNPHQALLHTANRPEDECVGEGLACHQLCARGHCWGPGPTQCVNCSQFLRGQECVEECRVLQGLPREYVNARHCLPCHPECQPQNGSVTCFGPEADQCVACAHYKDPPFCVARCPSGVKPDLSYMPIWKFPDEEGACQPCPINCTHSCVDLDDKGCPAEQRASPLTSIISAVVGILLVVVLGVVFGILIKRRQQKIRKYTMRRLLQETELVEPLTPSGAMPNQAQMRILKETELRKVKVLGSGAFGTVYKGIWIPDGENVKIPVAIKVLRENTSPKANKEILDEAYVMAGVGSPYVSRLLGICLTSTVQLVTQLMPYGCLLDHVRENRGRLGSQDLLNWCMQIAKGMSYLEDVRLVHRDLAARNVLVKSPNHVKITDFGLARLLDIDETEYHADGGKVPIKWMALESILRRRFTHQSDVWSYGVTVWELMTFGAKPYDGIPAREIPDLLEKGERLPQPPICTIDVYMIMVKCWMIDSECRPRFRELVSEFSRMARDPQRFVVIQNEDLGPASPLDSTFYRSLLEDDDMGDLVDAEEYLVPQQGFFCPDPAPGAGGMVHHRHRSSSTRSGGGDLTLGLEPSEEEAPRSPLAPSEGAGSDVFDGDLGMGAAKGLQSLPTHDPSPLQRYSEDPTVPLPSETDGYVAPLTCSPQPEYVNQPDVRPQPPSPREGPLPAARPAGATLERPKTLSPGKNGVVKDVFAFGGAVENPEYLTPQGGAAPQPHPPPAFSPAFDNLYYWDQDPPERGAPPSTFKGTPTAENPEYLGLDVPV

[8] = target: Serine/threonine-protein kinase Nek4 (Homo sapiens, UniProt P51957); format: functional
Serine/threonine-protein kinase Nek4, sequence (P51957 whole entry): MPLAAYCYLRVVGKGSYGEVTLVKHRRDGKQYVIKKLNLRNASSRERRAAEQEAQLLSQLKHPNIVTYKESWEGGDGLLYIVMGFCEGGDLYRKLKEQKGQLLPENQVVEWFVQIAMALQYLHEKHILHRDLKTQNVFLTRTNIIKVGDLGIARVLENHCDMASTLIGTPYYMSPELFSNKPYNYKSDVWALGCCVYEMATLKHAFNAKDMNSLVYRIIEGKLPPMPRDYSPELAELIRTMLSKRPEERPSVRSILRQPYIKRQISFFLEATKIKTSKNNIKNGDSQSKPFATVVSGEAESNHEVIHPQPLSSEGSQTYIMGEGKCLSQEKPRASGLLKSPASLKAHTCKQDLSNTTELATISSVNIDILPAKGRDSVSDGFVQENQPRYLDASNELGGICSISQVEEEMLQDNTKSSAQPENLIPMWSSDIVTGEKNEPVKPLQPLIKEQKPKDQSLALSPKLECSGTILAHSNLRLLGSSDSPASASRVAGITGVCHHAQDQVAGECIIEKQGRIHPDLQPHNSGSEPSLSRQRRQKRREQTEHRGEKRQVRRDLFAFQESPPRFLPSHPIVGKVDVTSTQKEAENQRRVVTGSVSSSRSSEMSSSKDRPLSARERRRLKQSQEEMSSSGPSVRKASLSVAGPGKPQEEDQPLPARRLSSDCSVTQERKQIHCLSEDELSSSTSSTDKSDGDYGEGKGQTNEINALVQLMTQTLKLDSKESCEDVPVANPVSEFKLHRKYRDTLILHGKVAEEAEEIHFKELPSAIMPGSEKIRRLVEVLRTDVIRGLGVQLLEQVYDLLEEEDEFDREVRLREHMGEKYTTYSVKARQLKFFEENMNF

[9] = target: Dual specificity tyrosine-phosphorylation-regulated kinase 4 (Homo sapiens, UniProt Q9NR20); format: functional
Dual specificity tyrosine-phosphorylation-regulated kinase 4, sequence (Q9NR20 whole entry): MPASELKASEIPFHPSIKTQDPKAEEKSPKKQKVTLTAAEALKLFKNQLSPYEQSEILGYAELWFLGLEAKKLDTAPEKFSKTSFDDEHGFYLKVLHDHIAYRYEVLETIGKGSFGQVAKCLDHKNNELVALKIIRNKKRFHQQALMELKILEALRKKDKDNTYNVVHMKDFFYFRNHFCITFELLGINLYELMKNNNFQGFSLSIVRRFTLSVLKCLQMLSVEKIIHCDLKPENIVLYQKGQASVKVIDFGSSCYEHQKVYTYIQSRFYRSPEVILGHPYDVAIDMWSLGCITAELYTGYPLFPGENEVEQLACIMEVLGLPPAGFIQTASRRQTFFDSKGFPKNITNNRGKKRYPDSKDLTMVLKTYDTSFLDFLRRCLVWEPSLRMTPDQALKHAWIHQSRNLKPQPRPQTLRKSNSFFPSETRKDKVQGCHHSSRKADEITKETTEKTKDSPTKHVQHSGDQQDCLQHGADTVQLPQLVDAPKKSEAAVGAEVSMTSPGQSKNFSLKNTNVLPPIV

[10] = target: Protein kinase C iota type (Homo sapiens, UniProt P41743); format: functional;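 note: measured within a kinome-wide kinase panel, PRKCI as panel member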
[11] = target: 3-phosphoinositide-dependent protein kinase 1 (Homo sapiens, UniProt O15530); format: functional;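 note: value comes from the Navigating the Kinome panel, PDPK1 member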
3-phosphoinositide-dependent protein kinase 1, sequence (O15530 whole entry): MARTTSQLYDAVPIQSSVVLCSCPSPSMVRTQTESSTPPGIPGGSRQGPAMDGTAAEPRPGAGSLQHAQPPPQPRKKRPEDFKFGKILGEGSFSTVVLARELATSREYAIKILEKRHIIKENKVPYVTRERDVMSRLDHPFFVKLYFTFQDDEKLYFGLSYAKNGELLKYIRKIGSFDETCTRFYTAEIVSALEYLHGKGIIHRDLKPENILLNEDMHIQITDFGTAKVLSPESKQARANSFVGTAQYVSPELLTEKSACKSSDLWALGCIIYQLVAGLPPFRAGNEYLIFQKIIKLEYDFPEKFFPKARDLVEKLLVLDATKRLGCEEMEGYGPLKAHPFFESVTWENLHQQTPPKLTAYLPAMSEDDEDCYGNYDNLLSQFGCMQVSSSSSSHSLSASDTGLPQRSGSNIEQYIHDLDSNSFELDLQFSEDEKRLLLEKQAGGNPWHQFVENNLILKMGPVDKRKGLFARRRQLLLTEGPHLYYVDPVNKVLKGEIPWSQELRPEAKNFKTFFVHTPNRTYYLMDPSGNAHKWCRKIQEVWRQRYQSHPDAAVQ

[12] = target: Serine/threonine-protein kinase Nek2 (Homo sapiens, UniProt P51955); format: functional
Serine/threonine-protein kinase Nek2, sequence (P51955 whole entry): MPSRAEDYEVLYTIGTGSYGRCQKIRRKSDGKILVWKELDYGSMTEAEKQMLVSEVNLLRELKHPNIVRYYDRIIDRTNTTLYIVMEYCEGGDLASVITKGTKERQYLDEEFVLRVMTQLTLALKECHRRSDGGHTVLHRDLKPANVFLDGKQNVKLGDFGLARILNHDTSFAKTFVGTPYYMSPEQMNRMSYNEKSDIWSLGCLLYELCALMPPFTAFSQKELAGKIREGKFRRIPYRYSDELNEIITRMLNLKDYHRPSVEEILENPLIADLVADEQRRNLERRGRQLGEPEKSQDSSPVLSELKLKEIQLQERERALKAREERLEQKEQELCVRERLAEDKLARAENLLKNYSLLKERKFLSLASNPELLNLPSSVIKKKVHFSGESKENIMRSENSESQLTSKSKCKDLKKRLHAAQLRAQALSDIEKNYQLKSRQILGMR

[13] = target: Cyclin-dependent kinase 8 (Homo sapiens, UniProt P49336); test: Navigating the Kinome. Panel member name: CDK8; format: functional
Cyclin-dependent kinase 8, sequence (P49336 whole entry): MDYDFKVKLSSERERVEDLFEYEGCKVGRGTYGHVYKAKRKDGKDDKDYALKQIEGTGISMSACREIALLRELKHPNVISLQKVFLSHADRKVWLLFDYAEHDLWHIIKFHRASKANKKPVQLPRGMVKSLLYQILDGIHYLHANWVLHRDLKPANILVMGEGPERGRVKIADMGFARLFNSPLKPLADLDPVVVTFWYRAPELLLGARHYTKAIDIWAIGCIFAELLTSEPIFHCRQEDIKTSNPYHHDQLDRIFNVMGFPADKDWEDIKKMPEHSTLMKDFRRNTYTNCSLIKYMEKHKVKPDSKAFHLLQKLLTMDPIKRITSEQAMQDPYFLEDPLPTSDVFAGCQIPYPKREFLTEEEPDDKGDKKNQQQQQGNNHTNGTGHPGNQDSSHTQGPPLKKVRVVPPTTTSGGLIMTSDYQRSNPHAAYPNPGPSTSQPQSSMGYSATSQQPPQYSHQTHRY

[14] = target: Macrophage-stimulating protein receptor (Homo sapiens, UniProt Q04912); test: Navigating the Kinome. Panel member name: MST1R; format: functional
[15] = target: Serine/threonine-protein kinase BRSK1 (Homo sapiens, UniProt Q8TDC3); format: functional;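 note: measured within a kinome-wide kinase panel, with the target listed as KIAA1811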

| SMILES | EC50 (Protein RecA) | AC50 [1] | Ki [2] | Ki [3] | Ki [4] | Ki [5] | Ki [6] | Ki [7] | Ki [8] | Ki [9] | Ki [10] | Ki [11] | Ki [12] | Ki [13] | Ki [14] | Ki [15] |
| --- | --- | --- | --- | --- | --- | --- | --- | --- | --- | --- | --- | --- | --- | --- | --- | --- |
| CCCn1nc([N+](=O)[O-])c(C(C#N)c2nc3ccccc3s2)c(Cl)c1=O (stereo unspecified) | 2.17 µM (active) | > 20 µM (inactive) |  |  |  |  |  |  |  |  |  |  |  |  |  |  |
| NCCCn1cc(-c2cc(-c3cc4ccccc4s3)c3[nH]ncc3c2)c2nc(N)ncc21 |  |  | 0.00631 µM (active) | 1.58 µM (active) | 0.0631 µM (active) | 2.51 µM (active) | > 1.58 µM (inactive) | > 1.58 µM (inactive) | 0.2 µM (active) | 0.794 µM (active) | 0.00316 µM (active) | 0.00158 µM (active) | > 10 µM (inactive) | > 3.98 µM (inactive) | > 3.98 µM (inactive) | 0.0794 µM (active) |
